In patent publication US6218378A, “Anti-tumor agents comprising pyridyl-substituted metal-diphosphine complex” (priority 1994, dated 2001):

Legend:
[1] = test system: M5076 Reticulum Cell Sarcoma; details: Berners-Price et al. 1990; cited from earlier work
[2] = test system: 41M, 41M-cisR, SKOV-3, CH1, CH1-cisR; assay: growth inhibition of cisplatin-sensitive and -resistant ovarian cancer cell lines (Table 2, FIG. 5); type: cell-based, human
Excerpt: (§1) The sensitive CH1 cell line was established from a patient with drug-sensitive disease and its resistant variant (CH1-cisR) was generated by prolonged in vitro exposure to cisplatin during which it acquired more efficient DNA repair as described in Kelland et al., 1992, Cancer Research 52 3857-3864. The sensitive 41M cell line was also established from a patient with a sensitive tumor and its resistant variant (41M-cisR) was generated in the same way but acquired decreased uptake across the cell membrane (Kelland et al., 1992, supra). The intrinsically-resistant SKOV-3 ovarian carcinoma cell line has high glutathione levels as described in Mistry et al., 1991, Brit. J. Cancer 64 215-220 and reduced levels of bi-functional cisplatin-DNA lesions as described in McKeage et al., 1994, Brit. J. Cancer 69 1-7. The characteristics of the cell line pairs CH1/CH1 cisR, 41M/41McisR and 41M/SKOV3 are described in Table 3.
The cytotoxicity assay used sulforhodamine B which stains the basic amino acids. Cells (5000 or 2500 for SKOV-3) were seeded into 96 well microtitre plates (Linbro, Flow Laboratories Inc., USA) in 0.1 ml of medium. After an overnight incubation, the metal phosphine compounds were dissolved in 0.9% NaCl or ethanol and diluted with medium, were added at concentrations ranging from 0.005 to 50 μM to quadruplicate wells. After 96 hrs incubation, the medium was removed and cells were fixed in 0.2 ml of cold 10% (w/v) trichloroacetic acid (May & Baker Ltd., Dagenham, England) for 30 mins at 4° C. The plates were washed five times with tap water. Then 0.1 ml of 0.4% (w/v) sulforhodamine B (Sigma Chemical Co., St. Louis, USA) dissolved in 1% acetic acid (Ajax Chemicals, Australia) was added to the wells and left to stand at room temperature for 15 mins. The plates were then washed five times with 1% acetic acid and left to dry overnight. The next morning, 0.1 ml of 10 mM Tris buffer (Sigma Chemical Co., St. Louis, USA) was then added to each plate to solubilise the dye. Absorbance was read at a wavelength of 570 nm using a 96 well plate reader Dynatech MR 5000 plate reader. Absorbance of treatment cells was expressed as a percentage of positive (drug-free) controls. The results were plotted as percentage growth versus drug concentration. The drug concentration resulting in a 50% growth inhibition was termed the IC50. The passage numbers used for the cytotoxicity assay from each cell line were, CH1 passages 50-58, CH1 cis-R passages 77-83, 41M passages 50-63, 41M cisR 81-92 and SKOV-3 passages 106-128.

PC9 = assay: activity against cisplatin sensitive lung tumour PC9; type: cell-based, human; details: very preliminary data
Excerpt: In Table 1, JAM and CI-80-13S are ovarian tumours, HeLa is a cervical tumour and MM96 is a melanoma In Table 2, all the tumours are ovarian tumours. […] In this regard, PC9 is a lung tumour and its derivation is discussed in Hong et al., 1993, Cancer Research 53 3302-3307 and Bungo et al., 1990, Cancer Research 50 2549-2553.

human tumour cell lines = assay: selectivity of cytotoxicity over all cell lines evaluated (Tables 1 and 2); type: cell-based
Excerpt: The origins of the human melanoma cell line MM96 has been described in Whitehead et al., 1973, Pigment Cell 1 383-389. The cell line JAM is described in Ward et al., 1987, Cancer Res. 47 2662-2667. The origin of the ovarian tumour line CI-80-13S has been described in Bertoncello et al., 1985, Aust. J. Exp. Biol. Med. Sci. 63 241-243. The origin of the cervical carcinoma cell line HeLa has been described in Maynard et al., 1986, Cancer Res. 46 5009-5093. The subclone HeLa-S1a was derived by stably transfecting HeLa with PAI-2 cDNA described in Schleuning et al., 1987, Mol. Cell. Biol. 7 4564-4567 in the sense orientation under the control of the cyto-megalovirus (CMV) promoter. The stably infected subclone was isolated following G418 selection and expression of the PAI-2 transgene characterised by immunoblot analysis and quantitated by ELISA. All of these cell lines have been used before for carrying out cell survival assays referred to in FIGS. 1-4. Cells were cultured at 37° in 5% CO2 /air in Roswell Park Memorial Institute medium 1640 containing 5% foetal calf serum, 100 μg/ml streptomycin, 100 IU/ml penicillin, 1 mM pyruvate, 50 μM nicotinamide and 3 mM HEPES.
Cells were seeded in microtitre plates (lowest number for fastest growing cells: 1000 HeLa, 2000 MM96, […] CI-80-13S cells per 6 mm well in 100 μl), normally but not necessarily allowed to attach overnight, then 5 dilutions of the drug were added to duplicate wells. After an overnight incubation to equilibrate the pH, the lids were quickly taped around the edge to prevent evaporation. The plates were incubated for 5-7 days, until the controls were nearly confluent. Cell growth/morphology was scored at each dose visually (inverted microscope). The medium was then replaced by 50 μl fresh medium containing 2 u/Ci/ml [methyl-3H]-thymidine (5 Ci/mmol; Radiochemical Centre, Amersham, Bucks., U.K.) and incubated for 2-4 hr. The cells were washed with PBS (0.1 M NaCl, 50 mM phosphate, pH 7.2), detached with 100 μl of PBS containing 0.2 mg/ml trypsin and 10 mM EDTA, and washed onto a glass fibre GF/a filter mat with water using a cell harvester. Later, wells were checked under the microscope to ensure complete detachment and washout. Radioactivity was determined in an LKB Beta Plate counter and the results plotted as log % control cpm versus dose. The ID50 (dose required to give 50% survival) was interpolated from this survival curve.
as §1
The cytotoxicity assay used sulforhodamine B which stains the basic amino acids. Cells (5000 or 2500 for SKOV-3) were seeded into 96 well microtitre plates (Linbro, Flow Laboratories Inc., USA) in 0.1 ml of medium. After an overnight incubation, the metal phosphine compounds were dissolved in 0.9% NaCl or ethanol and diluted with medium, were added at concentrations ranging from 0.005 to 50 μM to quadruplicate wells. After 96 hrs incubation, the medium was removed and cells were fixed in 0.2 ml of cold 10% (w/v) trichloroacetic acid (May & Baker Ltd., Dagenham, England) for 30 mins at 4° C. The plates were washed five times with tap water. […]

P388 leukaemia = details: i.p. P388 leukaemia; Berners-Price et al. 1990; cited from earlier work

IC50 (PC9; PC9 lung tumour): 25 µM
Compound: [Cl-].c1cc([P+]2(c3ccncc3)CC[P+](c3ccncc3)(c3ccncc3)[Au-3]23[P+](c2ccncc2)(c2ccncc2)CC[P+]3(c2ccncc2)c2ccncc2)ccn1 [[Au(d4pype)2]Cl]
activity in mice [1]: inactive
selectivity and cytotoxicity in ovarian cancer cell-lines (FIG. 5) [2]: exhibits the greatest selectivity killing only the CH1/CH1 cisR pair
activity against PC9 (PC9; cisplatin sensitive lung tumour): modest activity
number of cell lines against which cytotoxic (human tumour cell lines): cytotoxic to only four of the nine cell-lines tested
degree of selectivity (human tumour cell lines; Tables 1 and 2): the greatest selectivity
activity in mice (P388 leukaemia): inactive
